# Results: ChEMBL document CHEMBL2016490, “Sinularioside, a triacetylated glycolipid from the Indonesian soft coral Sinularia sp., is an inhibitor of NO release” (2012)
# Assays:
# Type in all cases: functional
# Details in all cases: J774, 24 h
# [1] = system: J774; experiment: Antiinflammatory activity in mouse J774 cells assessed as inhibition of LPS-induced NO production at 10 uM after 24 hrs by Griess method
# [2] = system: J774; experiment: Antiinflammatory activity in mouse J774 cells assessed as inhibition of LPS-induced NO production at 30 uM after 24 hrs by Griess method
# [3] = system: J774; experiment: Antiinflammatory activity in mouse J774 cells assessed as inhibition of LPS-induced NO production at 100 uM after 24 hrs by Griess method
smiles,measurement,setting,value
CCCCCCCCCCCCCCO[C@H]1OC[C@@H](O[C@H]2OC[C@@H](O)[C@@H](OC(C)=O)[C@@H]2OC(C)=O)[C@@H](O)[C@@H]1OC(C)=O [SINULARIOSIDE],inhibition at 10 µM,[1],6%
same,inhibition at 30 µM,[2],58.2%
same,inhibition at 100 µM,[3],92.3%
